Measured values from US20170326249A1, “ANTIBODY-DRUG CONJUGATE OF AN ANTI-GLYPICAN-3 ANTIBODY AND A TUBULYSIN ANALOG, PREPARATION AND USES” (Bristol-Myers Squibb Company, priority 2016, published 2017).

Experiments:
Type in all cases: cell-based
[1] = test system: HuH7D12 hepatocellular carcinoma cell line; test: 3H thymidine incorporation proliferation assay, HuH7D12; conditions: Homo sapiens, Huh-7D12; HuH7D12, Table 1
Protocol: (§1) The human tumor cell lines were obtained from the American Type Culture Collection (ATCC), P.O. Box 1549, Manassas, Va. 20108, USA, and cultured according to instructions from ATCC. Cells were seeded at 1.0×10^4 cells/well in 96-well plates. […] Plates were allowed to incubate for 72 h. The plates were pulsed with 1.0 μCi of ^3H-thymidine per well for the last 24 hours of the total incubation period, harvested, and read on a Top Count Scintillation Counter (Packard Instruments, Meriden, Conn.). The EC50 values—the ADC concentration at which cell proliferation was reduced by 50%—were determined using PRISM™ software, version 4.0 (GraphPad Software, La Jolla, Calif., USA).
(§2) The EC50 so values, along with those against HepG2 and HuH7D12 hepatocellular carcinoma cell lines, are shown in Table 1, plus data for the drug alone (formula (II)). […] That is, release of the drug from the conjugate is efficient.

[2] = test system: HepG2 hepatocellular carcinoma cell line; test: 3H thymidine incorporation proliferation assay, HepG2; conditions: Homo sapiens; HepG2, Table 1
Protocol: as §1, §2

[3] = test system: H446 small-cell lung cancer cells; test: 3H thymidine incorporation proliferation assay, H446; conditions: Homo sapiens, NCI-H446, 72 h
Protocol: as §1

[4] = test system: Hep3B hepatocellular carcinoma cells; test: 3H thymidine incorporation proliferation assay, Hep3B; conditions: Homo sapiens, 72 h
Protocol: as §1

`CCCN(C(=O)[C@@H](NC(=O)[C@H]1CCCCN1C)[C@@H](C)CC)[C@H](C[C@@H](OC(C)=O)c1nc(C(=O)N[C@@H](Cc2ccc(N)cc2)C[C@H](C)C(=O)O)cs1)C(C)C` [Unconjugated Drug (II)] gave an EC50 [1] of 0.2 nM, an EC50 [2] of 0.3 nM and an EC50 [3] of 0.2 nM. It also gave an EC50 [4] of 0.2 nM.
